Experimental data from patent publication US12642870B2, “Compositions and methods for delivery of nucleic acids” (Poseida Therapeutics, Inc., priority 2020, dated 2026).

How the values were obtained:
[1] = Physical characterisation of mRNA-containing LNPs (DLS, NTA, zeta potential); assay type: physicochemical; conditions: Fluc mRNA LNPs: compound/DOPE/Cholesterol/DMG-PEG2000 41.44/45.85/10/2.7, lipid:RNA 40:1 (w/w)
Experimental: A series of ten multi-component LNP compositions of the present disclosure comprising exemplary compounds of Formula (I) was prepared by combining various percentages of an exemplary compound of Formula (I), the phospholipid DOPE, the structural lipid cholesterol (Chol) and 1,2-dimyristoyl-sn-glycerol methoxypolyethylene glycol (DMG-PEG2000; Avanti Polar Lipids, Alabaster, Alabama, USA).
Individual 25 mg/ml stock solutions were prepared by solubilizing the lipids in 200-proof HPLC-grade ethanol and stock solutions were stored at −80° C. until formulated. At the time of formulation, the lipid stock solutions were briefly allowed to equilibrate to room temp and then placed on a hot plate maintained at a temperature range of 50-55° C.
A 1 mg/mi solution of the desired mRNA to be incorporated into the LNPs was added to 150 mM sodium acetate buffer (pH 5.2) to form a stock solution and kept on ice. The lipid phase was mixed with the aqueous m RNA phase inside a microfluidic chip using a NanoAssemblr® instrument (Precision Nanosystems, Vancouver, BC, Canada) according to the manufacturer's instructions to form LNP compositions comprising encapsulated mRNAs.
The resultant mRNA LNP compositions were then transferred to a Repligen Float-A-Lyzer dialysis device—having a molecular weight cut off (MWCO) of 8-10 kDa (Spectrum Chemical Mfg. Corp, CA, USA) and processed by dialysis against phosphate buffered saline (PBS) (dialysate:dialysis buffer volume at least 1:200 v/v), pH 7.4 overnight at 4° C. (or alternatively room temperature for at least 4 hours), to remove the 25% ethanol and achieve a complete buffer exchange. In some experiments the LNPs were further concentrated by in an Amicon® Ultra-4 centrifugal filter unit, MWCO-30 kDa (Millipore Sigma, USA) spun at ˜4100×g in an ultracentrifuge. The mRNA LNPs were then stored at 4° C. until further use.
A series of multicomponent LNP compositions comprising one of COMPOUNDS 1-8 described in Example 1 and the mRNA encoding flue was prepared according to Example 2 and the physical characteristics of the resulting LNPs were analyzed.
In a separate experiment, LNP compositions of the present disclosure comprising mRNA encoding firefly luciferase (hereafter “Fluc”; TriLink) and COMPOUNDS 1-8 were prepared as described in Example 2 by combining one of COMPOUNDS 1-8, the phospholipid DOPE, the structural lipid cholesterol (Chol) and 1,2-dimyristoyl-sn-glycerol methoxypolyethylene glycol (DMG-PEG2000) in the percentages presented in Table 8: […]

[2] = Physical characterisation of DNA-containing LNPs (DLS, NTA, zeta potential); assay type: physicochemical; conditions: nano-pB-EF1a-GFP DNA LNPs: compound/DOPE/Cholesterol/DMG-PEG2000 38.0/50.0/10.0/2.0, lipid:DNA 45:1 (w/w)
Experimental: LNP compositions of the present disclosure comprising DNA, a nanoplasmid encoding a piggyBac transposon, wherein the piggyBac transposon comprised GFP under control of the EF1a promoter (herein referred to as the nano-pB-EF1a-GFP), and one of COMPOUNDS 1-8 were prepared as described in Example 3 by combining one of COMPOUNDS 1-8, the phospholipid DOPE, the structural lipid cholesterol (Chol) and 1,2-dimyristoyl-sn-glycerol methoxypolyethylene glycol (DMG-PEG2000) in the following percentages in Table 20: […]

[3] = Average diameter of lipoplex nanoparticles comprising eGFP mRNA (DLS or NTA); assay type: physicochemical; conditions: lipoplex nanoparticles comprising eGFP mRNA and COMPOUND 1, both methods
Experimental: Lipoplex nanoparticles were formulated using solvent injection method. In brief, a multivalent cationic bolaform amphiphilic lipid (4.0 mg) was dissolved in dimethyl sulfoxide (1 mL) to obtain 4 mg/mL solution. The solution was heated for 15 min at 40° C. to dissolve the lipid. DNA or mRNA (0.040 mg) was diluted with 50 mM Sodium acetate buffer (2 mL, pH 5.5) to obtained 0.02 mg/mL solution. Bolamphiphile lipid solution (0.4 mg, 100 p1) was injected in DNA or mRNA solution (0.04 mg, 2 mL) under constant sonication. The mass ratio of […] was kept constant to 10 for all the bolamphiphile formulation. The sonication was continued for 5 min. The solution was dialyzed (MWCO 30 kDa) for 4-6 hours in PBS (1×, pH 7.4) at room temperature. Sample was concentrated using Amicon centrifuge tube (30 kDa) to get the desired concentration for subsequent in vivo or in vitro use.
Lipoplex nanoparticles were prepared comprising mRNA encoding eGFP using COMPOUND 1 according to the method above and the average diameter of the resulting nanoparticles was determined by DLS or NTA. Both methods yielded average diameters of about 120 nm and the presence of RNA in the nanoparticle was confirmed by gel electrophoresis as described in Example 3.

[4] = Agarose gel electrophoresis for nucleic acid incorporation; assay type: physicochemical; conditions: 1% agarose gel, SYBR Safe, naked mRNA control
Experimental: The LNP compositions were analyzed to verify the presence of mRNA. An aliquot of each of the LNP compositions was loaded on to a 1% agarose gel with a size standard and naked mRNA control, subject to electrophoresis and the presence of mRNA was detected by exposure of ultraviolet light to excite the fluorophore (SYBR Safe) which is complexed with nucleic acid. The free mRNA migrated in the gel in accordance with its molecular weight whereas all of the mRNA-containing LNP compositions remained at the interface of the agarose gel and the well with little to no detectable free mRNA indicating the LNP compositions comprising COMPOUND 1 of Example 1 were capable of incorporating mRNA.

HEK293T cells [5] = assay: In vitro LNP delivery of eGFP mRNA to adherent cells; assay type: cell-based; conditions: 0.125 μg eGFP mRNA per well, 24 hr, flow cytometry, LNP 41.44/45.85/10.0/2.7, lipid:RNA 40:1
Experimental: HEK293T cells were seeded in 96 well plates and grown to 70% confluence in DMEM+10% FBS] under a 5% CO2 atmosphere at 37° C. A 0.125 μg amount of 5′-CleanCap-eGFP mRNA (TriLink Biotech) formulated with LNP compositions comprising COMPOUNDS 1-4 as prepared in Example 3 at the following percentages in Table 10 was added to each well.
After incubating for 24 hr, cells were imaged for GFP expression with a Leica fluorescence microscope and then detached from 96 well plate to quantitate expression by flow cytometry.

Resting T-cells [6] = assay: LNP delivery of eGFP mRNA to resting T-cells; assay type: cell-based; conditions: eGFP mRNA LNPs 0.4144:0.4585:0.1:0.027, lipid:nucleic acid 40:1, 0.5 ug mRNA per well, 24 hrs
Experimental: In one experiment, LNPs of the present disclosure comprising one of COMPOUNDS 1-4, DOPE, Cholesterol and DMG-PEG2000 at a molar ratio of 0.4144:0.4585:0.1:0.027 and further comprising Cleancap mRNA encoding eGFP were formed on a NanoAssemblr® (Precision Nanosystems). […] Resting T-cells were treated with varying amounts of the four LNP composition and at 24 hrs, the cells were analyzed to determine the percentage of cells that were viable and that expressed […]. The results of the analysis are shown in Table 12 for a dose of 0.5 ug mRNA per well.

Resting T-cells [7] = assay: LNP delivery of nano-pB-EF1a-GFP DNA to resting T-cells; assay type: cell-based; conditions: nano-pB-EF1a-GFP DNA LNPs 0.38:0.5:0.1:0.02, lipid:nucleic acid 45:1, 24 hr
Text: The experiments described in this example used CD4/CD8 positive T-cells isolated from a leukapheresis product from a healthy donor.

HEK293T cells [8] = assay: In vitro lipoplex nanoparticle delivery of eGFP mRNA to adherent cells; assay type: cell-based
Experimental: HEK293T cells were seeded in 96 well plates and grown to 70% confluence in [DMEM+10% FBS under a 5% CO2 atmosphere at 37° C. Lipoplex nanoparticles comprising COMPOUND 1 and 0.007, 0.03, 0.125, and 0.50 μg mRNA encoding eGFP were added to the cells. Following incubation with the lipoplex nanoparticles, cells were assessed for GFP expression by epifluorescence microscopy and flow cytometry.

- Diameter (DLS; nm) [1]: 155.1 nm
- Diameter (NTA; nm) [1]: 126.5 nm
- PDI [1]: 0.174
- Total Particles/ml [1]: 1.66E+11 Particles/ml
- Zeta Potential (mV) [1]: 1.41 mV
- Diameter (DLS; nm) [2]: 123.5 nm
- Diameter (NTA; nm) [2]: 96.9 nm
- PDI [2]: 0.17
- Total Particles/ml [2]: 5.76E+11 Particles/ml
- Zeta Potential (mV) [2]: 0.67 mV
- average diameter of lipoplex nanoparticles [3]: about 120 nm
- incorporation of mRNA into the nanoparticle compositions by gel electrophoresis [4]: confirmed
SMILES: CC(C)C(CCC(C)C(CCC1CCC(C(=O)NCCCCCCNC(=O)C2CCC(CCC(SCCN(C)C)C(C)CCC(SCCN(C)C)C(C)C)C(SCCN(C)C)C2)CC1SCCN(C)C)SCCN(C)C)SCCN(C)C (stereo not shown) [Compound 1]
- % Viable GFP+ (HEK293T cells [5]): 23.5%
- % Viable GFP+ (Resting T-cells [6]): 9.5%
- % Viable GFP+ (Resting T-cells [7]): 35.2%
- % GFP (HEK293T cells [8]; lipoplex nanoparticles comprising COMPOUND 1, 0.007 μg mRNA): 0.99%
- % GFP (HEK293T cells [8]; lipoplex nanoparticles comprising COMPOUND 1, 0.03 μg mRNA): 7.37%
- % GFP (HEK293T cells [8]; lipoplex nanoparticles comprising COMPOUND 1, 0.125 μg mRNA): 30.1%
- % GFP (HEK293T cells [8]; lipoplex nanoparticles comprising COMPOUND 1, 0.50 μg mRNA): 56.1%
